Experiments:
[1] = Aqueous solubility determination (suspension equilibration for three days, HPLC); type: physicochemical; conditions: pure water, 25±2° C. (ambient temperature), about three days of suspension equilibration, filtered solution
Method: The aqueous solubility of Deferasirox free drug substance and the multicomponent crystalline system of the present invention (Deferasirox-Isonicotinamide co-crystal) was determined in water at ambient temperature after about three days of suspension equilibration using HPLC for the determination of the concentration in the filtered solution.
Solubility determinations were carried out in pure water at 25±2° C. Suspensions with about 50 mg the solid form, either the co-crystal of the present invention or deferasirox free drug substance in 7 mL water were prepared an equilibrated for three days before the solution phase was filtered off and tested by HPLC.
HPLC was carried out on an Agilent 1100 HPLC chromatograph equipped with a UV-vis detection unit. The column type used was a Waters XTerra MS C18, 100×4.6 mm, 5 μm (FK-CC01F). […]
882 mg of Deferasirox and 290 mg of isonicotinamide are dissolved in a mixture of 15 ml acetone and 3 ml THF by shortly heating to reflux temperature. […] Then suspension is filtered and the concentration in the solution determined by HPLC. […]

[2] = Dynamic water vapor adsorption measurements (DVS); type: physicochemical; conditions: water vapor sorption
Excerpt: It is known that the anhydrous form A of Deferasirox converts to a hydrate form upon exposure to high relative humidity, therefore anhydrous Deferasirox is hygroscopic. The multicomponent crystalline system described here is characterized in that it has good hygroscopic properties, i.e. absorb little water at high relative humidity. This is evident from table 1 below, which compares the water contents of the multicomponent crystalline system and Deferasirox free drug substance at 50% and 95% relative humidity. The data originate from dynamic water vapor adsorption measurements. The water vapor sorption measurement is a suitable method for investigating the hygroscopic properties of solid substances. Water vapor sorption measurements can be carried out in different ways. In general, in this connection, a small sample of ca. 10-30 mg is introduced into a microbalance in a suitable sample carrier. The sample is then exposed to different relative humidities in accordance with a defined program, the change in the sample mass being simultaneously recorded over the time. […]
Dynamic water vapor adsorption measurements were carried out using an SPS11 100 n instrument, manufactured by “Projekt Messtechnik” in Ulm, Germany. […] The sample was then subjected to preselected relative humidities in accordance with a defined program, the change in mass being determined over the time. […]

SMILES: O=C(O)c1ccc(-n2nc(-c3ccccc3O)nc2-c2ccccc2O)cc1 [Deferasirox free drug substance, 4-[3,5-bis(2-hydroxyphenyl)-1H-1,2,4-triazol-1-yl]benzoic acid]
- solubility thermodynamic at 3 days [1]: < 1 µg/mL
- H2O content at 50% r.h. ([2]; 50% relative humidity): 0.5%
- H2O content at 95% r.h. ([2]; 95% relative humidity): 3.6%

From patent publication US9290452B2, “Multicomponent crystalline system comprising deferasirox and isonicotinamide and a process for the preparation thereof” (BASF SE, priority 2012, dated 2016)
